Source: PubChem BioAssay AID179 (DTP/NCI, 2004)
Where “and” joins values, the source holds several entries; their conditions need not be identical. Equal entries are not always repeated. Calls of active or inactive are those of the source.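 Rule for the calls: active = compounds giving half or more protection of infected cells from virus-caused growth loss, again on retest; inactive = the rest.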 Where a SMILES comes first, the peptide text is derived from it.

Test system: CEM cells HIV-1 protection, formazan growth assay
Assay: NCI AIDS Antiviral Assay
Details: for IC50: measured here: growth of uninfected CEM cells
Outline: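 Screen of anti-HIV-1 activity in human CEM cells using a formazan-based growth measurement at five drug concentrations. Hits with 50% or greater protection were repeated, and confirmation required reproducible complete protection.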

SMILES | EC50 [µM] | IC50 | outcome
COc1ccc(-c2cc(-c3ccccc3)c(C#N)c(=O)n2C2OC(CO)C(O)C(O)C2O)cc1 (stereo unspecified) | > 21.4 | > 21.4 µM | –
CN(N)P(=O)(c1ccccc1)N(C)N | > 1150 | 501 µM | –
CC(=O)NC1=C(C)C(=O)c2c(nc3n2CCC3OC(=O)CCl)C1=O (stereo unspecified) | > 200 | 1.48 µM | –
COc1cc(-c2oc3cc(OC)c(OC)c(OC)c3c(=O)c2OC)cc(OC)c1OC | > 200 | 26.3 µM | –
Cc1ccc(Oc2ccc(C)cc2N)cc1 | – | – | inactive
C=CCc1cc(OC)c2c(c1)C(OC)CC(c1ccc(OC)c(OC)c1)O2 (stereo unspecified) | > 251 | > 251 µM | –
O=c1[nH]c(-c2ccccc2)nc2cc([N+](=O)[O-])c(/C(Cl)=C/c3ccccc3)cc12 | – | – | inactive
CCN1CCC(O)(/C=C/c2ccc(C)cc2C)C(C(=O)/C=C/c2ccc(C)cc2C)C1 (stereo unspecified) | > 200 | 3.24 µM | –
COC(=O)C12C=CC(C1)n1c(=O)n(-c3ccccc3)c(=O)n12 (stereo unspecified) | > 295 | 275 µM | –
Cc1oc2c(c1C)S(=O)(=O)C(C#N)C(c1ccccc1)N2 (stereo unspecified) | > 200 | 126 µM | –
CC(=O)OC1OC(C2c3cccc(O)c3C(=O)c3c(O)cc(CO)cc32)C(O)C(O)C1O (stereo unspecified) | > 200 | 4.07 µM and 4.17 µM | –
COC(=O)C1=C(C)NC2=C(C(=O)c3ccccc32)C1c1cn[nH]c1-c1ccccc1 (stereo unspecified) | > 20 | > 20 µM | –
Cc1ccc(NNc2cc(=O)[nH]c(=O)[nH]2)cc1Cl | > 200 | 4.68 µM | –
COc1ccccc1C1ON=C(c2ccc([N+](=O)[O-])cc2)N1C12CC3CC(CC(C3)C1)C2 (stereo unspecified) | > 200 | > 200 µM | –
O=c1[nH]c(=O)n2n1CC(Br)C(Br)C2 (stereo unspecified) | – | – | inactive
COC(=O)C1CC23CC1(OC(C)=O)CCC2c1ccc(OC)cc1C3=O (stereo unspecified) | > 61.7 | > 61.7 µM | –
CC1(C)NC(=O)[C@]2(C[C@@H](O)C=C2CO)O1 | > 200 | > 200 µM | –
COC(CN1C=C(Sc2ccccc2)CC1)OC | > 97.7 | 16.6 µM | –
CN/N=C(/C=C/c1ccccc1)C(C)C | > 200 | > 200 µM | –
N=C(N)n1[nH]c2c(c1=O)CCC2 | > 200 | > 200 µM | –
C/C(Cc1ccccc1)=N\NC(N)=S | – | – | inactive
CCC(C#N)NCc1ccc(CNC(C#N)CC)cc1 (stereo unspecified) | > 200 | > 200 µM | –
FC(F)(F)c1cccc(C=NC23CC4CC(CC(C4)C2)C3)c1 | > 17 | > 17 µM | –

SMILES | EC50 [µM] | IC50 | outcome
CC1(C)CC[C@]2(C)CC=C3[C@]4(C)CC[C@H]5C(C)(C)C(=O)CC[C@]5(C)[C@H]4CC[C@@]3(C)[C@H]2C1 | > 50.1 | > 50.1 µM | –
C#CCN(Cc1ccc2nc(-c3ccccc3)c(Cl)nc2c1)c1ccc(Cl)c(Cl)c1 | > 200 | > 200 µM | –
COc1ccc2c3c(c(C(=O)O)oc13)C(CCC(=O)O)CC2 (stereo unspecified) | – | – | inactive
COC(=O)[C@]12CSC[C@H]1C[C@H](c1ccc(N(C)C)cc1)N2 | > 200 | > 200 µM | –
CCCCN(CCCC)P(=S)(OCC)OCC | > 200 | > 200 µM | –
CCCCCCCCCCCc1cc(=O)c2c(O)cccc2o1 | > 14.8 | > 14.8 µM | –
O=c1c(O)c(-c2ccc(Cl)cc2)oc2ccccc12 | > 200 | 4.07 µM | –
Cc1ccc(C)n1-c1ccccc1C1SCCCS1 | > 200 | 195 µM | –
CC(C)=CCC[C@@H](C)C1=C(O)C(Nc2ccccc2I)=C(C)C(=O)C1=O | > 200 | 6.76 µM | –
COC(=O)C1=C2CCC(=O)[C@@]2(C)CC(C)=C(C)C1 | – | – | inactive
CCCCCCCCCCCCCCCCN[Si](NCCCCCCCCCCCCCCCC)(NCCCCCCCCCCCCCCCC)NCCCCCCCCCCCCCCCC | > 240 | 138 µM | –
S=P1(Oc2ccccc2)NNP2(=NP(N3CC3)(N3CC3)=NP(N3CC3)(N3CC3)=N2)NN1 (stereo unspecified) | > 50.1 | 5.13 µM | –
CCCNC(=O)CNC(=O)c1ccccc1SC(=O)CCCC[n+]1ccccc1 | 8.32 | 112 µM | –
CC(=O)NNc1nc(C)c(C(=O)NNC(=O)C(=O)Nc2cccc(C(C)=O)c2)s1 | > 44.7 | > 44.7 µM | –
C=CCCCCCCCCC/C=C1\C[C@H](O)COC1=O | > 93.3 | > 93.3 µM | –
N/C(=C\c1ccc(OCc2ccccc2)c(OCc2ccccc2)c1[N+](=O)[O-])C(=O)O | – | – | inactive
O=C1NC(=O)C2C3C(C(O)(c4ccccc4)c4ccccn4)=CC(/C3=C(\c3ccccc3)c3ccccn3)C12 (stereo unspecified) | > 200 | 53.7 µM | –
c1ccc(-c2onc3c2CCCC3)cc1 | – | – | inactive
CC(C)(C)N=NC(C)(C)N=C=O | > 251 | > 251 µM | –
CCC(CON(C)c1ccccc1)(SC)SC | > 200 | 105 µM | –
CN1CCC(O)(OC(=O)C(c2ccccc2)C2(O)CCCC2)CC1 (stereo unspecified) | > 200 | > 200 µM | –
CCOC(=O)CC(=O)Cc1oc2c(C(C)=O)c(O)c(C)c(O)c2c1C | > 200 | 21.4 µM | –
CCN(CC)CCSc1c(C(C)=O)c(=O)n(-c2ccccc2)c(=S)n1-c1ccccc1 | > 200 | 1.15 µM | –

SMILES | EC50 [µM] | IC50 | outcome
Cc1ccc(S(=O)(=O)n2cnc(CC(NC(=O)C3CCC(=O)N3C(=O)OCc3ccccc3)C(=O)N3CCCC3C(=O)NN)c2)cc1 (stereo unspecified) | > 200 | > 200 µM | –
Cc1ccc(NC(=O)C(=O)C(C(=O)c2ccc3ccccc3c2)C2OC(=O)c3ccccc32)c(C)c1 (stereo unspecified) | > 75.9 | 21.4 µM | –
COC1=C(C)C(=O)C(=O)c2cccnc21 | – | – | inactive
CC1(C(=O)O)CC(C(=O)O)=Nn2c3ccccc3c3cccc1c32 (stereo unspecified) | > 324 | > 324 µM | –
c1cn[nH]c1 | > 3630 | 1780 µM | –
Cc1n[n+](Cc2ccccc2)c2sc(N)nn12 | > 200 | 40.7 µM | –
O=C1CC(c2ccc(O)c(O)c2)c2c(cc(O)c3c2O[C@H](c2ccc(O)c(O)c2)[C@H](O)C3)O1 (stereo partly specified) | > 200 | 31.6 µM | –
COc1ccc(Oc2cc(CC3c4cc(OC)c(OC)cc4CCN3C)c([N+](=O)[O-])cc2OC)cc1OC (stereo unspecified) | – | – | inactive
CN(C)c1ccc(/C=C(\C#N)C(=O)c2ccccc2)cc1Br | > 14.8 | > 14.8 µM | –
NC(=O)c1c2c(cc3c(=O)c4ccccc4[nH]c13)CCCC2 | – | – | inactive
Cc1ccc(NC(=O)c2cc(S(=O)(=O)N3CCNNC3=O)c(S)cc2Cl)cc1 | 30.2 | 195 µM | –
Cc1ccc2nc3c(Cl)c(C)c(=O)cc-3sc2c1 | > 13.5 | > 13.5 µM | –
COC(=O)C(=O)C(C(=O)C(=O)Nc1ccc(C)cc1C)c1nc2ccc(Cl)cc2[nH]c1=O (stereo unspecified) | > 57.5 | 47.9 µM | –
O=C1OCCC[C@H]2O[C@@H](COCc3ccccc3)C[C@@H]12 | > 200 | > 200 µM | –
CS1(C)=NC(=O)c2cc([N+](=O)[O-])ccc2N=1 | > 123 | > 123 µM | –
CC(=O)O[C@H]1CN(S(=O)(=O)c2ccc(C)cc2)C[C@@H]1C1CCCCC1 | > 200 | 28.8 µM | –
CS(=O)(=O)O[C@H]1[C@H](O)c2ccccc2[C@@H]1N=[N+]=[N-] | > 200 | > 200 µM | –
COc1cccc2c(=O)c3c(n(C)c12)OC(C(C)C)C3 (stereo unspecified) | > 339 | 126 µM | –
CCOC(=O)CSc1c([N+](=O)[O-])ncn1C | > 1020 | 170 µM | –
CON[N+]([O-])=NC(C)C | 195 | > 200 µM | –
Nc1ncnc2c1ncn2[C@H]1C(CO)CC1(F)F (stereo partly specified) | > 182 | > 182 µM | –
CC(C)=C[C@@H]1C[C@H](C)[C@H]2CC[C@H](C)[C@H]3C(=O)C(O)=C(C)C(=O)[C@]123 | > 200 | 105 µM | –
O=[N+]([O-])c1ccc(N/N=C/c2ccc(OCCCCCCCCCCCO)cc2)c([N+](=O)[O-])c1 | > 200 | 42.7 µM | –

SMILES | EC50 [µM] | IC50 | outcome
O=c1[nH]c(CCc2ccccc2)nc2ccccc12 | > 7.94 | > 7.94 µM | –
O=[N+]([O-])c1ccc2cnn(CSP(=S)(c3ccccc3)c3ccccc3)c2c1 | > 200 | 3.02 µM | –
CCOC(=O)C12C3CCC1C2C(=O)C3 (stereo unspecified) | – | – | inactive
CN(C)c1ccc(N=C2N=C(Nc3ccccc3)C(=Nc3ccccc3)S2)cc1 | > 100 | 72.4 µM | –
CCOC(=O)N1N=C(c2ccccc2)OC2(N3CCCC3)CCC(C(C)(C)C)CC12 (stereo unspecified) | 44.7 | 105 µM | –
O=C(O)c1ccccc1/C=N/NC1=NCCCCN1 | > 200 | 141 µM | –
CCOC(=O)CCC1(C(=O)OC)CCCC1=O (stereo unspecified) | > 1020 | > 1020 µM | –
NCCCCC1NC(=O)C(CO)NC(=O)C(Cc2cnc[nH]2)NC(=O)CNC(=O)C(Cc2c[nH]c3ccccc23)NC(=O)C(Cc2c[nH]c3ccccc23)NC(=O)C(Cc2ccccc2)NC1=O (stereo unspecified) (cyclo(GHSKFWW); configuration not given here) | > 50.1 | > 50.1 µM | –
C=CCn1c(C23CC4CC(CC(C4)C2)C3)n[nH]c1=S | > 1000 | 30.9 µM | –
CC1(C)C2CCC1C(=O)[C@@]1(C=CC(=O)CC1)C2 (stereo partly specified) | > 200 | > 200 µM | –
COc1cc2c3c(c1)ncn3C(=O)CS2 | > 200 | > 100 µM | –
CC(=O)C1(O)Cc2c(O)c3c(c(O)c2C(OC2CC(N)C(O)C(C)O2)C1)C(=O)c1ccccc1C3=O (stereo unspecified) | > 339 | 0.107 µM | –
CC(=O)NC(CCC(=O)c1ccc(Cl)cc1Cl)C(=O)O (stereo unspecified) | > 200 | > 200 µM | –
CC(=O)NC(CCCN)C(=O)NCc1ccccc1 (stereo unspecified) | > 955 | > 955 µM | –
COC(=O)/C=C(\C)C(=O)N(C)c1ccccc1I | > 200 | 123 µM | –
NC1=NN(c2ccc(Br)cc2)C2C=CC=CN12 (stereo unspecified) | > 200 | 151 µM | –
CCCCCC=C(c1cc(C)c(OC)c(Br)c1)c1cc(C)c(OC)c(Br)c1 | > 200 | 15.5 µM | –
COC(=O)C(Cc1nc2ccccc2nc1C)/C(=N\NC(N)=O)C(=O)Nc1cccc([N+](=O)[O-])c1 (stereo unspecified) | > 15.1 | > 15.1 µM | –
[O]=[Sb]([OH])([OH])[c]1ccccc1 | > 200 | 77.6 µM and > 200 µM | –
O=C(O)c1ccccc1CC1Cc2ccccc2C1 | > 200 | > 200 µM | –
